The test system of data set [1] is systolic blood pressure of deoxycorticosterone acetate hypertensive rats. Briefly: Hypotensive activity in DCA/saline hypertensive rats (systolic blood pressure, tail cuff). The class given is in vivo, rat (male, CD strain). To be noted: for Lowering of Blood Pressure in Hypertensive rate in mm's of Hg., 1 hr. / Lowering of Blood Pressure in Hypertensive rate in mm's of Hg., 2 hrs. / Lowering of Blood Pressure in Hypertensive rate in mm's of Hg., 4 hrs. / Lowering of Blood Pressure in Hypertensive rate in mm's of Hg., 24 hrs. / compounds which appear most active from Table I: 50 mg/kg intraperitoneal; for Lowering of Blood Pressure in Hypertensive rate in mm's of Hg., 1 hr. / Lowering of Blood Pressure in Hypertensive rate in mm's of Hg., 2 hrs. / Lowering of Blood Pressure in Hypertensive rate in mm's of Hg., 4 hrs. / Lowering of Blood Pressure in Hypertensive rate in mm's of Hg., 24 hrs.: change vs predrug control, six rats; for compounds which appear most active from Table I: qualitative ranking. The protocol: Hypertension was produced in weanling (30-day old) male rats of the CD strain obtained from the Charles River Breeding Laboratories (Wilmington, Mass.) by subcutaneously implanting about the dorsal surface of the neck a pellet of deoxycorticosterone acetate (DCA) containing 10 mg DCA in a mixture of Carbowax 4000 (Union Carbide) and Flexowax C light (Glyco Products). Their drinking water was replaced by a 1% sodium chloride solution, a procedure known to facilitate the development of an experimental hypertension, and they had free access to chow. Systolic blood pressure in the caudal arteries was measured indirectly by a pneumatic pulse transducer and a tail pressure cuff on a Physiograph Four recorder (Narco Bio-Systems, Inc., Houston, Texas) in unanesthetized but restrained rats prewarmed to 40° C., 10-15 minutes prior to the determination. The rats were kept at a temperature of 40° C. for all determinations of systolic pressure in an attempt to minimize variations in blood pressure due to marked changes in arterial tone caused by changes in temperature. Blood pressures were measured at intervals in the DCA-treated rats given saline and in non-treated control rats. After 20 days, the mean systolic pressure in the DCA-treated rats was above 150 mm Hg. Hypertension was regarded as being established in the rats at this stage and they were at intervals, usually beginning with the 30th day after DCA-implant in testing for hypotensive activity. Following a series of control blood pressure readings, a dose of 50 mg/kg of the compound under investigation was administered by intraperitoneal injection either in solution or as a suspension in 1% tragacanth solution to groups of six hypertensive rats. Blood pressures were redetermined at 1, 2, 4 and 24 hour periods following injection. At each interval, the systolic pressure was measured a minimum of five times in each rat and the average value was calculated. Mean values for the group were calculated from the individual average values and compared with their predrug control levels. The statistical significance of the changes produced by the compounds, in the doses employed, was tested by the "t" test as well as by an analysis of variance. The reductions in blood pressure obtained with the indicated representative tetrahydroisoquinoline compounds are shown in Table I. The code number for the compound and the example herein showing its preparation are both given in Table I.
(§1) Additional compounds have been tested. The toxicity data for the additional compounds tested, and their identity, is given in the following Table II while the blood pressure lowering activity of the compounds is given in the following Table III. The heading "Example Number" in the tables refers to the working example herein which discloses the compounds and its preparation. The test procedure used for determining the blood pressure lowering activity of the compounds is the same as that previously set forth herein. However, the figures in Table III are expressed as percentage change in blood pressure, rather than in mm of mercury change in blood pressure, as presented in Table I herein.

For data set [2], the system named is femoral artery of a dog. Nature of the data set: Peripheral vasodilator activity after administration into femoral artery of a dog. It is filed as in vivo. To be noted: into the femoral artery, compared with papaverine.
A short description of data set [3]: Acute toxicity (LD50) in the mouse. The following applies: in vivo. How it is done: 5-(3,4,5-trimethoxybenzamido)-2-methyl-1,2,3,4-tetrahydroisoquinoline (M-20) in mice has an LD-50 of about 125 to 250 mg/kg intraperitoneally.
as §1
Approximate Acute Toxicity (24 hrs.)
(a) Suspension in 1% tragacanth
(b) Solution in distilled water
(c) Solubilized with the aid of dilute acid

For data set [4], the system named is arterial blood pressure of anesthetized dog. Nature of the data set: Arterial blood pressure in the anesthetized dog. It is filed as in vivo. The following applies: 5 mg/kg intravenously.
Where [5] appears, read: Table I, unit, species and route not given.

Structures can show the parent of a compound that is named as a salt.

Results on eight molecules are retold here after patent US4022900A, “Compositions containing 1,2,3,4-tetrahydroisoquinolines used as hypotensive agents” (Marion Laboratories, Inc., priority 1972, dated 1977).

Consider `COc1cc(C(=O)Nc2cccc3c2CCN(C)C3)cc(OC)c1OC` [M-20, 5-(3,4,5-Trimethoxybenzamido)-2-methyl-1,2,3,4-tetrahydroisoquinoline], for which, in data set [1], the “Lowering of Blood Pressure in Hypertensive rate in mm's of Hg., 1 hr.” value (“Lowering of Blood Pressure … 1 hr.” below) was -19±3 mm's of Hg; the “Lowering of Blood Pressure in Hypertensive rate in mm's of Hg., 2 hrs.” value (“Lowering of Blood Pressure … 2 hrs.” below) is on record as -26±2 mm's of Hg; the “Lowering of Blood Pressure in Hypertensive rate in mm's of Hg., 4 hrs.” value (“Lowering of Blood Pressure … of Hg., 4 hrs.” for short) is -15±10 mm's of Hg; the “Lowering of Blood Pressure in Hypertensive rate in mm's of Hg., 24 hrs.” value (from here on “Lowering of Blood Pressure … 24 hrs.”) was -3±2 mm's of Hg. The peripheral vasodilator activity result in data set [2] is reported as “peripheral vasodilator activity although less than that of papaverine”. In data set [3] (setting [5]), the 50% lethal dose (LD50) – broadly, the dose at which mortality reaches 50% – was 125 to 250 mg/kg. In data set [3] (ip, mice, intraperitoneally, about), this molecule came in with an LD50 of 125 to 250 mg/kg. For the same molecule, in data set [4], the arterial blood pressure entry is on record as “decreased arterial blood pressure”.
As to `CCCN1CCc2c(cccc2NC(=O)c2cc(OC)c(OC)c(OC)c2)C1` [M-49, 5-(3,4,5-Trimethoxybenzamido)-2-n-propyl-1,2,3,4-tetrahydroisoquinoline], in data set [1], the “Lowering of Blood Pressure … 1 hr.” value was -31±6 mm's of Hg; the “Lowering of Blood Pressure … 2 hrs.” value is given as -27±6 mm's of Hg; the “Lowering of Blood Pressure … of Hg., 4 hrs.” value was -21±6 mm's of Hg; the “Lowering of Blood Pressure … 24 hrs.” value is listed as -17±6 mm's of Hg. For the same molecule, in data set [1], the “compounds which appear most active from Table I” value is “most active”. In addition, in data set [3] (setting [5]), the LD50 is 125 to 250 mg/kg.
Turning to `COc1ccc(C(=O)Nc2cccc3c2CCN(C)C3)cc1` [M-56, 5-(4-Methoxybenzamido)-2-methyl-1,2,3,4-tetrahydroisoquinoline], in data set [1], the “Lowering of Blood Pressure … 1 hr.” value is given as -14±5 mm's of Hg; the “Lowering of Blood Pressure … 2 hrs.” value was -30±8 mm's of Hg; the “Lowering of Blood Pressure … of Hg., 4 hrs.” value is -19±6 mm's of Hg; the “Lowering of Blood Pressure … 24 hrs.” value is recorded as -18±4 mm's of Hg. In data set [3] (setting [5]), the LD50 was in the range of 62 to 125 mg/kg.
For `CN1CCc2c(cccc2NC(=O)c2ccccc2[N+](=O)[O-])C1` [M-69, 5-(2-Nitrobenzamido)-2-methyl-1,2,3,4-tetrahydroisoquinoline], the “Percent Change in Pressure from Control ± S.E., 2 Hours” value in data set [1] (50 mg/kg i.p., 2 hours, systolic pressure, * <0.05 significance (Newman-Keuls)) is -4.1 ± 3.0%. In data set [1] (50 mg/kg i.p., 4 hours, systolic pressure, * <0.05 significance (Newman-Keuls)), the “Percent Change in Pressure from Control ± S.E., 4 Hours” value was -3.3 ± 4.0%. The “Percent Change in Pressure from Control ± S.E., 24 Hours” value in data set [1] (50 mg/kg i.p., 24 hours, systolic pressure, * <0.05 significance (Newman-Keuls)) is recorded as -1.0 ± 3.0%. Besides, the LD50 at 24 h in data set [3] (ip, 24 hrs, solubilized with the aid of dilute acid, read-out: Approximate Acute Toxicity (24 hrs.) In the Mouse, LD50) lay in the range of 125 to 250 mg/kg.
As to `COc1ccc(C(=O)Nc2cccc3c2CCN(C)C3)cc1OC` [M-55, 5-(3,4-Dimethyoxybenzamido)-2-methyl-1,2,3,4-tetrahydroisoquinoline], in data set [1], the “Lowering of Blood Pressure … 1 hr.” value was -32±5 mm's of Hg; the “Lowering of Blood Pressure … 2 hrs.” value is reported as -31±5 mm's of Hg; the “Lowering of Blood Pressure … of Hg., 4 hrs.” value is on record as -32±4 mm's of Hg; the “Lowering of Blood Pressure … 24 hrs.” value is -20±4 mm's of Hg. The “compounds which appear most active from Table I” value in data set [1] is “most active”. Also, the LD50 in data set [3] (setting [5]) fell in the range of 125 to 250 mg/kg.
As to `COc1ccc(C(=O)Nc2cccc3c2CCNC3)cc1OC` [M-34, 5-(3,4-Dimethoxybenzamido)-1,2,3,4-tetrahydroisoquinoline HCl], in data set [1], the “Lowering of Blood Pressure … 1 hr.” value was -33±5 mm's of Hg; the “Lowering of Blood Pressure … 2 hrs.” value is reported as -28±7 mm's of Hg; the “Lowering of Blood Pressure … of Hg., 4 hrs.” value is -23±4 mm's of Hg; the “Lowering of Blood Pressure … 24 hrs.” value is -2±6 mm's of Hg. In addition, the “compounds which appear most active from Table I” value in data set [1] is reported as “most active”. This molecule had an LD50 in data set [3] (setting [5]) of 500 to 1000 mg/kg.
As to `COc1cc(C(=O)Nc2ccc3c(c2)CN(C)CC3)cc(OC)c1OC` [M-59, 7-(3,4,5-Trimethoxybenzamido)-2-methyl-1,2,3,4-tetrahydroisoquinoline], in data set [1], the “Lowering of Blood Pressure … 1 hr.” value is -60±7 mm's of Hg; the “Lowering of Blood Pressure … 2 hrs.” value is on record as -46±7 mm's of Hg; the “Lowering of Blood Pressure … of Hg., 4 hrs.” value is recorded as -34±6 mm's of Hg; the “Lowering of Blood Pressure … 24 hrs.” value is recorded as -18±7 mm's of Hg. The “compounds which appear most active from Table I” value in data set [1] is given as “most active”. Besides, the LD50 in data set [3] (setting [5]) lay within 250 to 500 mg/kg.
With `COc1cc(C(=O)Nc2cccc3c2CCNC3)cc(OC)c1OC` [M-46, 5-(3,4,5-Trimethoxybenzamido)-1,2,3,4-tetrahydroisoquinoline HCl], in data set [1], the “Lowering of Blood Pressure … 1 hr.” value is on record as -26±10 mm's of Hg; the “Lowering of Blood Pressure … 2 hrs.” value is given as -25±7 mm's of Hg; the “Lowering of Blood Pressure … of Hg., 4 hrs.” value was -11±4 mm's of Hg; the “Lowering of Blood Pressure … 24 hrs.” value was -18±4 mm's of Hg. The LD50 in data set [3] (setting [5]) lay within 250 to 500 mg/kg.
